Measurements published in publication PMC4564001 (Bioorganic & medicinal chemistry letters, 2015).

How the values were obtained:
neutrophil influx = assay: Ozone rat model of pulmonary inflammation; type: in vivo, Sprague-Dawley rats
[1] = type: in vitro ADME; conditions: data not shown
[2] = type: in vitro ADME, human; conditions: 1 μM, 37°C, LC-MS/MS
[3] = type: in vivo; conditions: DPS vehicle
Aqueous solubility = type: physicochemical; conditions: qualitative statement

Row | SMILES | Reduction of neutrophil influx (BALF) (neutrophil influx; single IV dose 1 mg/kg at t = 0, 1 ppm ozone 4 hours, BALF at 24 hours) | Stability in rat plasma (6 vs 7) [1] | Human Plasma stability (% remaining) 1 hr [2] [% remaining] | Human Plasma stability (% remaining) 4 hr [2] [% remaining] | Human Plasma stability (% remaining) 24 hr [2] [% remaining] | Rat PK AUC @ 1 mg/kg IV [3] [µM·h] | Effectiveness at reducing neutrophil influx relative to 6 (neutrophil influx; single IV dose 1 mg/kg, ozone model, side-by-side with 6) | Aqueous solubility (Aqueous solubility)
1 | O=C(Nc1ccc(F)cc1)c1ccc(SCc2cc(OC(F)(F)F)ccc2B(O)O)nc1 [Compound 6, 6-(2-boronic acid-5-trifluoromethoxy-benzylsulfanyl)-N-(4-fluoro-phenyl)-nicotinamide] | modest reduction in neutrophil influx | no significant difference | 62 | 34 | 2 | 5.40 | – | –
2 | O=C(Nc1ccc(F)cc1)c1cnc(N(Cc2ccccc2)Cc2ccc(B(O)O)cn2)nc1 [Compound 7, (2-{(Benzyl)[(5-boronic acid-2-pyridyl)methyl]amino}-5-pyrimidinyl)(4-fluorophenylamino)formaldehyde] | – | no significant difference | 90 | 71 | 62 | – | twice as effective | –
3 | CN(Cc1ccc(B(O)O)cn1)c1ccc(C(=O)Nc2ccc(F)cc2)cn1 [Compound 22] | – | – | – | – | – | – | – | improved aqueous solubility
4 | CN(Cc1ccc(B(O)O)cn1)c1ncc(C(=O)Nc2ccc(F)cc2)cn1 [Compound 23] | – | – | – | – | – | – | – | improved aqueous solubility
